Converted amounts (≈) assume the structure as drawn.
Assays:
Format in all cases: functional
[1] = system: Clostridioides difficile; test: Antibacterial activity against fusidic acid resistant Clostridium difficile 73:2 isolate with fusA I459R mutation after 8 to 13 days
[2] = system: Clostridioides difficile; test: Antibacterial activity against fusidic acid resistant Clostridium difficile 100:2 isolate with fusA V119A mutation after 8 to 13 days
[3] = system: Clostridioides difficile; test: Antibacterial activity against fusidic acid resistant Clostridium difficile 49:3 isolate with fusA S116L and A374V mutation after 35 to 40 days
[4] = system: Clostridioides difficile; test: Antibacterial activity against fusidic acid resistant Clostridium difficile 26:3 isolate with fusA M16I and H455N mutation after 35 to 40 days
[5] = system: Clostridioides difficile; test: Antibacterial activity against fusidic acid resistant Clostridium difficile 107:3 isolate with fusA A459R mutation after 35 to 40 days
[6] = system: Clostridioides difficile; test: Antibacterial activity against fusidic acid resistant Clostridium difficile 248:3 isolate with fusA H455R mutation after 35 to 40 days
[7] = system: Clostridioides difficile; test: Antibacterial activity against fusidic acid resistant Clostridium difficile 57:3 isolate with fusA S116L and A374V mutation after 35 to 40 days
[8] = system: Clostridioides difficile; test: Antibacterial activity against fusidic acid resistant Clostridium difficile 62:1 isolate after 1 day; conditions: 24 h
[9] = system: Clostridioides difficile; test: Antibacterial activity against fusidic acid resistant Clostridium difficile 62:2 isolate after 8 to 13 days
[10] = system: Clostridioides difficile; test: Antibacterial activity against fusidic acid resistant Clostridium difficile 63:2 isolate with fusA T434I after 8 to 13 days
[11] = system: Clostridioides difficile; test: Antibacterial activity against fusidic acid resistant Clostridium difficile 51:2 isolate with fusA S449P mutation after 8 to 13 days
[12] = system: Clostridioides difficile; test: Antibacterial activity against fusidic acid resistant Clostridium difficile 26:2 isolate with fusA D432N mutation after 8 to 13 days
[13] = system: Clostridioides difficile; test: Antibacterial activity against fusidic acid resistant Clostridium difficile 26:1 isolate after 1 day; conditions: 24 h
[14] = system: Clostridioides difficile; test: Antibacterial activity against fusidic acid resistant Clostridium difficile 63:1 isolate after 1 day; conditions: 24 h
[15] = system: Clostridioides difficile; test: Antibacterial activity against fusidic acid resistant Clostridium difficile 73:1 isolate after 1 day; conditions: 24 h
[16] = system: Clostridioides difficile; test: Antibacterial activity against fusidic acid resistant Clostridium difficile 72:2 isolate with fusA S116L and A374V mutation after 8 to 13 days
[17] = system: Clostridioides difficile; test: Antibacterial activity against fusidic acid resistant Clostridium difficile 107:1 isolate after 1 day; conditions: 24 h
[18] = system: Clostridioides difficile; test: Antibacterial activity against fusidic acid resistant Clostridium difficile 100:1 isolate after 1 day; conditions: 24 h
[19] = system: Clostridioides difficile; test: Antibacterial activity against fusidic acid resistant Clostridium difficile 57:1 isolate after 1 day; conditions: 24 h
[20] = system: Clostridioides difficile; test: Antibacterial activity against fusidic acid resistant Clostridium difficile 49:1 isolate after 1 day; conditions: 24 h
[21] = system: Clostridioides difficile; test: Antibacterial activity against fusidic acid resistant Clostridium difficile 72:1 isolate after 1 day; conditions: 24 h
[22] = system: Clostridioides difficile; test: Antibacterial activity against fusidic acid resistant Clostridium difficile 58:2 isolate with fusA H455Q mutation after 8 to 13 days
[23] = system: Clostridioides difficile; test: Antibacterial activity against fusidic acid resistant Clostridium difficile 248:1 isolate after 1 day; conditions: 24 h
[24] = system: Clostridioides difficile; test: Antibacterial activity against fusidic acid resistant Clostridium difficile 62:3 isolate with fusA A375 deletion after 35 to 40 days
[25] = system: Clostridioides difficile; test: Antibacterial activity against fusidic acid resistant Clostridium difficile 51:1 isolate after 1 day; conditions: 24 h
[26] = system: Clostridioides difficile; test: Antibacterial activity against fusidic acid resistant Clostridium difficile 49:2 isolate after 8 to 13 days
[27] = system: Clostridioides difficile; test: Antibacterial activity against fusidic acid resistant Clostridium difficile 58:1 isolate with fusA H455Q mutation after 1 day; conditions: 24 h

CC(=O)O[C@H]1C[C@@]2(C)[C@@H](C[C@@H](O)[C@H]3[C@@]4(C)CC[C@@H](O)[C@@H](C)[C@@H]4CC[C@@]32C)/C1=C(\CCC=C(C)C)C(=O)O [FUSIDIC ACID]
MIC [1]: > 256 µg/mL
MIC [2]: > 256 µg/mL
MIC [3]: > 256 µg/mL
MIC [4]: > 256 µg/mL
MIC [5]: > 256 µg/mL
MIC [6]: > 256 µg/mL
MIC [7]: > 256 µg/mL
MIC [8]: 0.25 µg/mL (≈ 0.484 µM)
MIC [9]: 0.25 µg/mL (≈ 0.484 µM)
MIC [10]: 64 µg/mL (≈ 124 µM)
MIC [11]: > 256 µg/mL
MIC [12]: > 256 µg/mL
MIC [13]: 0.38 µg/mL (≈ 0.735 µM)
MIC [14]: 0.25 µg/mL (≈ 0.484 µM)
MIC [15]: 0.5 µg/mL (≈ 0.968 µM)
MIC [16]: > 256 µg/mL
MIC [17]: 0.19 µg/mL (≈ 0.368 µM)
MIC [18]: 0.38 µg/mL (≈ 0.735 µM)
MIC [19]: 0.38 µg/mL (≈ 0.735 µM)
MIC [20]: 0.25 µg/mL (≈ 0.484 µM)
MIC [21]: 0.25 µg/mL (≈ 0.484 µM)
MIC [22]: > 256 µg/mL
MIC [23]: 0.125 µg/mL (≈ 0.242 µM)
MIC [24]: 4 µg/mL (≈ 7.74 µM)
MIC [25]: 0.25 µg/mL (≈ 0.484 µM)
MIC [26]: 0.25 µg/mL (≈ 0.484 µM)
MIC [27]: > 256 µg/mL

— ChEMBL document CHEMBL1144464, “Mutations in fusA associated with posttherapy fusidic acid resistance in Clostridium difficile” (2007)
